Results: ChEMBL document CHEMBL3507680, “University of Dundee, Gates Library screen for HepG2 cell viability”

Experiment: Human HepG2 cell viability assay in 384 well format
Type: toxicity, cell-based
Design: dose 125 nL, time 70.5 hour; concentration not given beside the values
Details: HepG2 cells, read-out: Inhibition

## c1cnc(NC[C@@H]2CCC[C@@H]3CN(Cc4csnn4)C[C@@H]32)nc1
  cytotoxicity at 70.5 h: -9.2%

## CC(NC(=O)CCn1cncn1)c1nnc2n1CCCCC2 (configuration not stated)
  cytotoxicity at 70.5 h: -13.5%

## COCCN1C[C@H]2CC[C@@H]1CN(CC(=O)Nc1ccn(C)n1)C2
  cytotoxicity at 70.5 h: -9.39%

## CSCCC(=O)N1CCCN(Cc2cnn(C(C)C)c2)CC1
  cytotoxicity at 70.5 h: 34.5%

## COCCNC1(c2ccc(Cl)cc2)CCOCC1
  cytotoxicity at 70.5 h: 11%

## CNC(=O)c1nc(CC(=O)Nc2cccc(C(F)(F)F)c2)no1
  cytotoxicity at 70.5 h: 22.3%

## CS(=O)(=O)Cc1ccc(CNC(=O)N2CCC(C(N)=O)C2)cc1 (configuration not stated)
  cytotoxicity at 70.5 h: -1.33%

## N#Cc1ccccc1C(=O)N1C[C@@H](CN2CCCCC2)[C@@H](CO)C1
  cytotoxicity at 70.5 h: -5.21%

## c1cc(CN2CCCC(c3nnc(-c4cnccn4)o3)C2)ccn1 (configuration not stated)
  cytotoxicity at 70.5 h: -8.48%

## Cc1ccccc1CN(CCN(C)C)Cc1ncc[nH]1
  cytotoxicity at 70.5 h: -7.18%

## COc1cccc(-c2n[nH]cc2C(=O)NC(C)c2n[nH]c(C)n2)c1 (configuration not stated)
  cytotoxicity at 70.5 h: 13.9%

## CC(C(=O)NCCCN1CCCCCC1=O)n1cncn1 (configuration not stated)
  cytotoxicity at 70.5 h: -0.359%

## OCCNc1nccc(-c2c[nH]nc2-c2ccncc2)n1
  cytotoxicity at 70.5 h: -2.75%

## O=C(NCc1cc2ccccc2s1)c1cc(CN2CCCC(O)C2)on1 (configuration not stated)
  cytotoxicity at 70.5 h: -3.19%

## Cn1c(CN2CCCC(c3noc(C4CC4)n3)C2)cc(=O)n(C)c1=O (configuration not stated)
  cytotoxicity at 70.5 h: -11.3%

## CCn1cnnc1C1CCN(C(=O)c2cc(F)ccc2OC)CC1
  cytotoxicity at 70.5 h: -10.6%

## CCOCCC1(CNC(=O)c2ccsc2)CCC1
  cytotoxicity at 70.5 h: -5.98%

## Cc1nnc(NC(=O)CN2CCCC2c2noc(C3CC3)n2)s1 (configuration not stated)
  cytotoxicity at 70.5 h: 21.8%

## O=c1[nH]nc(CNc2ncc(Br)cn2)[nH]1
  cytotoxicity at 70.5 h: -2.47%

## COCc1noc(C2(c3ccc(Cl)cc3)CCOCC2)n1
  cytotoxicity at 70.5 h: -6.8%

## Cc1nn(C)c2c(NCc3ccc(F)cc3)nc(C3CC3)nc12
  cytotoxicity at 70.5 h: -5.76%

## CCc1ccc(O)c(C(=O)N2CCN(CC(=O)N3CCCCC3)CC2)c1
  cytotoxicity at 70.5 h: 11.8%

## CNC(=O)c1ccc2c(c1)C1(CCN(CC(C)C)CC1)C(=O)N2
  cytotoxicity at 70.5 h: -10.5%

## O=C(NCCNc1cnccn1)N1CCCC(N2CCCC2)C1 (configuration not stated)
  cytotoxicity at 70.5 h: 3.31%

## CCOc1ccccc1CNCC1CCN(CC(C)O)CC1 (configuration not stated)
  cytotoxicity at 70.5 h: -1.15%

## CC[C@@H](CO)NC(=O)c1coc(COc2ccc3sc(C)nc3c2)n1
  cytotoxicity at 70.5 h: -12.1%

## CCc1ccc(-n2nnc(C(=O)O)c2-c2ccncc2)cc1
  cytotoxicity at 70.5 h: -4.02%

## O=C(NCC(O)C1CC1)Nc1cnn(Cc2ccccc2)c1 (configuration not stated)
  cytotoxicity at 70.5 h: -7.29%

## CCc1nc(C(=O)N2CCN(CCc3ccc(OC)cc3)CC2)c[nH]1
  cytotoxicity at 70.5 h: -12.3%

## CS(=O)(=O)NC[C@]12COC[C@H]1CN(Cc1ccc3c(c1)OCO3)C2
  cytotoxicity at 70.5 h: 5.12%

## CC(O)CN1CCN(C(=O)c2cnc(OC(C)C)c(Cl)c2)CC1 (configuration not stated)
  cytotoxicity at 70.5 h: 5%

## Cc1cccc(CN2CCc3onc(CO)c3C2)n1
  cytotoxicity at 70.5 h: 5.71%

## O=C(c1ccc(F)c(F)c1)N1CCCSCC1CN1CCCC1 (configuration not stated)
  cytotoxicity at 70.5 h: -0.49%

## COCCn1ccnc1CN(Cc1ccccn1)CC(C)C
  cytotoxicity at 70.5 h: -6.56%

## COc1cc2c(c(OC)c1OC)CCN(CCn1cncn1)CC2
  cytotoxicity at 70.5 h: -8.44%

## COc1ccc(C(CC(=O)O)NC(=O)CCc2cccs2)cc1OC (configuration not stated)
  cytotoxicity at 70.5 h: 4.75%

## CCC1C(=O)NCCN1c1cc(C)ncn1 (configuration not stated)
  cytotoxicity at 70.5 h: -22.8%

## Cc1cc(C(O)CCNS(=O)(=O)c2ccc(Cl)s2)c(C)o1 (configuration not stated)
  cytotoxicity at 70.5 h: -15.4%

## CC(CNCc1ccc2c(c1)n(C)c(=O)n2C)Oc1ccccn1 (configuration not stated)
  cytotoxicity at 70.5 h: -24.7%

## CNC(=O)c1cc(-c2ccccc2)nc2ncnn12
  cytotoxicity at 70.5 h: 7.79%

## CCCN(Cc1cnn(C)c1)S(=O)(=O)c1cccc(F)c1C#N
  cytotoxicity at 70.5 h: -2.96%

## COCCOc1ccc(F)cc1NCc1nc2ccccc2n1C
  cytotoxicity at 70.5 h: 11.4%

## O=C(C1CCOCC1)N1C[C@H]2CC[C@@H]1CN(C1Cc3ccccc3C1)C2
  cytotoxicity at 70.5 h: -5.9%

## Cc1ncsc1-c1nnc(C2CCCN2C(=O)CCn2cccn2)o1 (configuration not stated)
  cytotoxicity at 70.5 h: -9.26%

## Cc1ccccc1CN(Cc1ccc(S(C)(=O)=O)cc1)CC(C)C
  cytotoxicity at 70.5 h: 6.09%

## Cc1ccc(OCC(O)COC2CCOCC2)c(Cl)c1 (configuration not stated)
  cytotoxicity at 70.5 h: -0.327%

## CC(C)(O)CN1CCN(C(=O)c2cccn2Cc2ccccc2)CC1
  cytotoxicity at 70.5 h: -6.76%

## CCOc1c(F)cccc1C(=O)N(c1cccnc1)C(C)C
  cytotoxicity at 70.5 h: -3.95%

## O=S(=O)(NCc1ccccc1Cn1cncn1)N1CCCCCC1
  cytotoxicity at 70.5 h: -7.52%

## CC(C)(C)c1nc(CN2CCCC(Cn3cncn3)C2)no1 (configuration not stated)
  cytotoxicity at 70.5 h: -13.7%

## CCn1nc2c(cc1=O)CN(Cc1nc(-c3ccsc3)no1)CC2
  cytotoxicity at 70.5 h: -22.4%

## COc1ccc2c(c1OC)Cc1c-2nc(N)c(C#N)c1C1CCOC1 (configuration not stated)
  cytotoxicity at 70.5 h: -19.2%

## C=C(C)CN(c1cn[nH]c1)S(=O)(=O)c1cccc(C#N)c1
  cytotoxicity at 70.5 h: -5.38%

## CCCn1cc(C(=O)N2CCCC(c3nccn3CCOC)C2)c(C)n1 (configuration not stated)
  cytotoxicity at 70.5 h: 1.39%

## CCCN1C[C@H]2CC[C@@H]1CN(Cc1ccc(-n3cccn3)cc1)C2
  cytotoxicity at 70.5 h: 23.7%

## COc1ccc(-c2cccc(CC3(C(=O)O)CCOCC3)c2)cc1
  cytotoxicity at 70.5 h: -4.34%

## CCc1c(C)nc(-n2nc(-c3cccs3)cc2N)[nH]c1=O
  cytotoxicity at 70.5 h: -5.27%

## O=C(Cc1c(F)cccc1Cl)Nc1cccc(N2CCCC2)c1
  cytotoxicity at 70.5 h: -4.34%

## Cn1cccc1C(=O)N1C[C@H]2CN(Cc3cccc(F)c3)C[C@H]2C1
  cytotoxicity at 70.5 h: -6.11%

## CC(Cn1cccn1)NC(=O)NCCCN1CCc2ccccc21 (configuration not stated)
  cytotoxicity at 70.5 h: -0.512%

## CC(CNC(=O)c1cc(Cl)ccc1F)N1CCCC1 (configuration not stated)
  cytotoxicity at 70.5 h: -13.5%

## O=C(c1cnn2c1OCCC2)N1CCN(C(=O)C2CCCO2)CC1 (configuration not stated)
  cytotoxicity at 70.5 h: -5.75%

## COCCN(CCC#N)S(=O)(=O)c1ccc(F)cc1F
  cytotoxicity at 70.5 h: 0.44%

## COc1ccc(COCC(O)CNC(=O)c2cc(C)cc(C)c2)cc1 (configuration not stated)
  cytotoxicity at 70.5 h: -11.8%

## OC1(Cn2ccc3ncccc32)CCN(Cc2ccccc2F)CC1
  cytotoxicity at 70.5 h: 2.31%

## Cc1cccc(OCCNC(=O)CN2CCCC2Cn2cncn2)c1 (configuration not stated)
  cytotoxicity at 70.5 h: -4.68%

## Brc1csc(-c2noc(C3COCCO3)n2)c1 (configuration not stated)
  cytotoxicity at 70.5 h: 0.61%

## COc1cccc(S(=O)(=O)N2CCCCC2CCN2CCOCC2)c1 (configuration not stated)
  cytotoxicity at 70.5 h: 24.6%

## CC(C)N1CCC(Nc2ccn(C)n2)C1=O (configuration not stated)
  cytotoxicity at 70.5 h: -3.38%

## CCN(Cc1nccs1)Cc1cc(Cl)ccc1OC
  cytotoxicity at 70.5 h: 2.82%

## N#Cc1cnc2c(F)cc(F)cc2c1NC1CCN(CC(N)=O)CC1
  cytotoxicity at 70.5 h: -5.14%

## COC(=O)[C@@H]1CN(S(=O)(=O)c2ccccc2)CCN1S(C)(=O)=O
  cytotoxicity at 70.5 h: -7.6%

## CN(C)C(=O)CCC[S+]([O-])Cc1cc(Cl)ccc1Cl (configuration not stated)
  cytotoxicity at 70.5 h: -3.61%

## CCc1nc(C(=O)NCc2ccc(N3CCNC(=O)C3)c(F)c2)c[nH]1
  cytotoxicity at 70.5 h: 5.08%

## CC(C)c1cc(C(=O)N2CCN(Cc3ccc(C#N)cc3)CC2)n[nH]1
  cytotoxicity at 70.5 h: -4.18%

## O=C(O)c1cccc(S(=O)(=O)N2CCOc3ccccc32)c1
  cytotoxicity at 70.5 h: -12.8%

## O=C(Cn1ccc(=O)cc1)N1C[C@H]2CC[C@@H]1CN(c1ncccn1)C2
  cytotoxicity at 70.5 h: -8.59%

## c1cnnc(N2CCCC2CNc2ncnc3c2CCC3)c1 (configuration not stated)
  cytotoxicity at 70.5 h: -2.98%

## COCC1CC2(CCNCC2)CN1c1ncccn1 (configuration not stated)
  cytotoxicity at 70.5 h: 2.77%

## CCCN1CCC(NC(=O)c2ccnc(SCC)c2)CC1
  cytotoxicity at 70.5 h: -0.521%

## O=C(Cn1cnc2sccc2c1=O)NCCCc1nnc2ccccn12
  cytotoxicity at 70.5 h: -17.5%

## CC(O)C(=O)N1CCC(c2nccn2Cc2cscn2)CC1 (configuration not stated)
  cytotoxicity at 70.5 h: 23.7%
